Experimental data published in ChEMBL document CHEMBL1201862, “PubChem BioAssay data set” (2004).
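Tested at 5 concentrations; 48 h exposure; 96-well plates; endpoints linearly interpolated, else capped at highest concentration. GI50 is the concentration that inhibits growth by half.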 Calls of active or inactive are those of the source. Cut-off read from the data, not from the text of the source: active = GI50 up to about 1.1 µM and inactive = higher.

What was measured:
Assay in all cases: NCI tumour cell line growth inhibition, 48 h
[1] = test system: 786-0
[2] = test system: A498
[3] = test system: A549
[4] = test system: ACHN
[5] = test system: CAKI-1
[6] = test system: CCRF-CEM
[7] = test system: COLO 205
[8] = test system: DLD-1
[9] = test system: DMS-114
[10] = test system: DMS-273
[11] = test system: EKVX
[12] = test system: HCT-116
[13] = test system: HCT-15
[14] = test system: HL-60
[15] = test system: HOP-18
[16] = test system: HOP-62
[17] = test system: HOP-92
[18] = test system: HT-29
[19] = test system: IGROV-1
[20] = test system: K562
[21] = test system: KM-20L2
[22] = test system: LXFL 529
[23] = test system: M14
[24] = test system: M19-MEL
[25] = test system: MOLT-4
[26] = test system: Malme-3M
[27] = test system: NCI-H23
[28] = test system: NCI-H460
[29] = test system: OVCAR-3
[30] = test system: OVCAR-4
[31] = test system: OVCAR-5
[32] = test system: OVCAR-8
[33] = test system: RPMI-8226
[34] = test system: RXF 393
[35] = test system: RXF 631
[36] = test system: SF-268
[37] = test system: SF-295
[38] = test system: SF-539
[39] = test system: SK-MEL-28
[40] = test system: SK-MEL-2
[41] = test system: SK-MEL-5
[42] = test system: SK-OV-3
[43] = test system: SN12C
[44] = test system: SNB-19
[45] = test system: SNB-75
[46] = test system: SNB-78
[47] = test system: SR
[48] = test system: SW-620
[49] = test system: TK-10
[50] = test system: U-251
[51] = test system: UACC-257
[52] = test system: UACC-62
[53] = test system: UO-31
[54] = test system: XF498
[55] = test system: HCC 2998
[56] = test system: KM12
[57] = test system: LOX IMVI
[58] = test system: NCI-H226

O=[N+]([O-])c1ccc(C2N3CCCCC3[C@@H]3c4[nH]c5ccccc5c4CCN23)cc1 (stereo partly specified)
GI50 [1]: 28.1 µM (inactive) | GI50 [2]: 11.3 µM (inactive) | GI50 [3]: 19.5 µM (inactive) | GI50 [4]: 12.8 µM (inactive) | GI50 [5]: 26.9 µM (inactive) | GI50 [6]: 27.5 µM (inactive) | GI50 [7]: 17.6 µM (inactive) | GI50 [8]: 10.8 µM (inactive) | GI50 [9]: 7.19 µM (inactive) | GI50 [10]: 17.5 µM (inactive) | GI50 [11]: 29.9 µM (inactive) | GI50 [12]: 6.44 µM (inactive) | GI50 [13]: 14.3 µM | GI50 [14]: 80.2 µM (inactive) | GI50 [15]: 67.3 µM (inactive) | GI50 [16]: 19.5 µM (inactive) | GI50 [17]: 44.6 µM (inactive) | GI50 [18]: 3.48 µM (inactive) | GI50 [19]: 24 µM (inactive) | GI50 [20]: 7.82 µM (inactive) | GI50 [21]: 11 µM (inactive) | GI50 [22]: 16.8 µM (inactive) | GI50 [23]: 16.1 µM (inactive) | GI50 [24]: 6.07 µM (inactive) | GI50 [25]: 10.2 µM (inactive) | GI50 [26]: < 0.01 µM (active) | GI50 [27]: 15.5 µM (inactive) | GI50 [28]: 19.2 µM (inactive) | GI50 [29]: 18.4 µM (inactive) | GI50 [30]: 22.6 µM (inactive) | GI50 [31]: 25.9 µM (inactive) | GI50 [32]: 30.4 µM (inactive) | GI50 [33]: 16.5 µM (inactive) | GI50 [34]: 4.59 µM (inactive) | GI50 [35]: 28.5 µM (inactive) | GI50 [36]: 15.4 µM (inactive) | GI50 [37]: 26.1 µM (inactive) | GI50 [38]: 13.3 µM (inactive) | GI50 [39]: 16.3 µM (inactive) | GI50 [40]: 16.9 µM (inactive) | GI50 [41]: 15 µM (inactive) | GI50 [42]: 22.6 µM (inactive) | GI50 [43]: 15.4 µM (inactive) | GI50 [44]: 16.6 µM (inactive) | GI50 [45]: 0.0638 µM (active) | GI50 [46]: 3.96 µM (inactive) | GI50 [47]: 3.12 µM (inactive) | GI50 [48]: 22.6 µM (inactive) | GI50 [49]: 10.7 µM (inactive) | GI50 [50]: 20.2 µM (inactive) | GI50 [51]: 16.5 µM (inactive) | GI50 [52]: 5.22 µM (inactive) | GI50 [53]: 16.1 µM (inactive) | GI50 [54]: 17.8 µM (inactive)

CCCCCCCCCCCCCCCCCC(=O)NCC(COP(=O)([O-])OCC[N+](C)(C)C)OC (stereo unspecified)
GI50 [1]: 1.5 µM (inactive) | GI50 [2]: 3.03 µM (inactive) | GI50 [3]: 10.3 µM (inactive) | GI50 [4]: 10.8 µM (inactive) | GI50 [5]: 2.44 µM (inactive) | GI50 [6]: 2.02 µM (inactive) | GI50 [7]: 1.48 µM (inactive) | GI50 [8]: 2.59 µM (inactive) | GI50 [9]: 10.6 µM (inactive) | GI50 [10]: 1.58 µM (inactive) | GI50 [11]: 16.3 µM (inactive) | GI50 [55]: 1.05 µM (active) | GI50 [12]: 5.66 µM (inactive) | GI50 [13]: 1.95 µM | GI50 [14]: 1.16 µM (inactive) | GI50 [15]: 3.78 µM (inactive) | GI50 [16]: 2.87 µM (inactive) | GI50 [17]: 2.64 µM (inactive) | GI50 [18]: 3.45 µM (inactive) | GI50 [19]: 1.91 µM (inactive) | GI50 [20]: > 10 µM (inactive) | GI50 [21]: 2.23 µM (inactive) | GI50 [56]: 0.766 µM (active) | GI50 [57]: 10.6 µM (inactive) | GI50 [22]: 6.78 µM (inactive) | GI50 [23]: 11.5 µM (inactive) | GI50 [24]: 2.43 µM (inactive) | GI50 [25]: 1.76 µM (inactive) | GI50 [26]: 8.59 µM (inactive) | GI50 [58]: 3.44 µM (inactive) | GI50 [27]: 14.3 µM (inactive) | GI50 [28]: 1.27 µM (inactive) | GI50 [29]: 3.37 µM (inactive) | GI50 [30]: 3.6 µM (inactive) | GI50 [31]: 4.09 µM (inactive) | GI50 [32]: 10.9 µM (inactive) | GI50 [33]: 1.63 µM (inactive) | GI50 [34]: 0.652 µM (active) | GI50 [35]: 13.4 µM (inactive) | GI50 [36]: 5.2 µM (inactive) | GI50 [37]: 3.46 µM (inactive) | GI50 [38]: 17.6 µM (inactive) | GI50 [39]: 16.6 µM (inactive) | GI50 [41]: 15.2 µM (inactive) | GI50 [42]: 15.2 µM (inactive) | GI50 [43]: 3.85 µM (inactive) | GI50 [44]: 1.91 µM (inactive) | GI50 [45]: 5 µM (inactive) | GI50 [46]: 4.3 µM (inactive) | GI50 [47]: 2.16 µM (inactive) | GI50 [48]: 10.9 µM (inactive) | GI50 [49]: 1.56 µM (inactive) | GI50 [50]: 1.87 µM (inactive) | GI50 [51]: 15.9 µM (inactive) | GI50 [52]: 4.53 µM (inactive) | GI50 [53]: 16.9 µM (inactive) | GI50 [54]: 2.71 µM (inactive)
